Activity calls are given as the source filed them.
Tests used:
Mus musculus [1] = organism: Mus musculus; assay: Antialzheimer activity against STZ induced C57BL/6 mouse model of cognitive dysfunction assessed as decrease in p-Tau level in hippocampus by Western blot analysis; format: functional, organism-based
[2] = target: T1, Receptor-interacting serine/threonine-protein kinase 1 (Homo sapiens) (UniProt Q13546); assay: Inhibition of RIPK1 phosphorylation in TSZ induced human HT-29 cells at 1 uM pretreated with compound followed by TSZ stimulation upto 6 hrs by immunoblotting analysis relative to control; format: cell-based
T1 sequence (whole entry): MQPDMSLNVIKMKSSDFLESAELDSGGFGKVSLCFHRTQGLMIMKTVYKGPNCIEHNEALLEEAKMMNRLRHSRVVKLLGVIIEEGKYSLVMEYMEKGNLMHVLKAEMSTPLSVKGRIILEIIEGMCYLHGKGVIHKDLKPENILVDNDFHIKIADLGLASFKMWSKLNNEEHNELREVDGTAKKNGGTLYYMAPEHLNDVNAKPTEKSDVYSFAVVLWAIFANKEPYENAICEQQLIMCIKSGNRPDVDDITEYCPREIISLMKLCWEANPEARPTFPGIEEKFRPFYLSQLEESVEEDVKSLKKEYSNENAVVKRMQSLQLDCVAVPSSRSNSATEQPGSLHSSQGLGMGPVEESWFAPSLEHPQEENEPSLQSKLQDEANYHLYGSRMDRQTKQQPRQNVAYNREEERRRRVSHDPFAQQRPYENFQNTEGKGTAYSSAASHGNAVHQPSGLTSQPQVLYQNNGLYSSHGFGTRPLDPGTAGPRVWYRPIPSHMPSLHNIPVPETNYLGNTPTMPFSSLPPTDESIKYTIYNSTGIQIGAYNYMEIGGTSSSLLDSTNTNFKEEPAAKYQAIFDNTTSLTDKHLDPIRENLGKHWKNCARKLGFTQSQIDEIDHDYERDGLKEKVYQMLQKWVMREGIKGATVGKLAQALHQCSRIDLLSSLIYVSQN

Mus musculus [3] = assay: Anti-necroptosis activity against TNFalpha-induced C57BL/6 mouse model of systemic inflammatory response syndrome assessed as protection against hypothermia at 20 to 40 mg/kg, IG pretreated for 1 hr followed by TNFalpha stimulation relative to control; format: functional; conditions: dose 20-40 mg/kg
[4] = target: T1, Receptor-interacting serine/threonine-protein kinase 1 (Homo sapiens); assay: Inhibition of RIPK1 in human HT-29 cells assessed as reduction in TSZ induced necroptosis at 25 to 50 nM pretreated with compound followed by TSZ stimulation for 8 hrs by celltiter-glo luminescent cell viability assay relative to control; format: cell-based; conditions: dose 25-50 nM
Mus musculus [5] = organism: Mus musculus; assay: Antialzheimer activity against STZ induced C57BL/6 mouse model of cognitive dysfunction assessed as decrease in p-Tau level in frontal cortex by Western blot analysis; format: functional, organism-based
[6] = target: T1, Receptor-interacting serine/threonine-protein kinase 1 (Homo sapiens); assay: Inhibition of RIPK1 in human HT-29 cells assessed as reduction in TCZ induced necroptosis at 0.2 to 25 nM pretreated with compound followed by TCZ stimulation for 16 hrs by celltiter-glo luminescent cell viability assay; format: cell-based; conditions: dose 0.2-25 nM
[7] = Toxicity in C57BL/6 mouse assessed as effect on kidney by H and E staining based analysis; format: tissue-based; conditions: in vivo
Mus musculus [8] = assay: Antialzheimer activity against STZ induced C57BL/6 mouse model of cognitive dysfunction assessed as increase in number of active avoidance time at 1 mg/kg, IG administered once daily and measured for 4 days by active avoidance test; format: functional, organism-based; conditions: time 4.0 day
[9] = Toxicity in C57BL/6 mouse assessed as effect on liver by H and E staining based analysis; format: tissue-based; conditions: in vivo
[10] = target: T2, Receptor-interacting serine/threonine-protein kinase 3 (Homo sapiens, UniProt Q9Y572); assay: Inhibition of RIPK3 phosphorylation in TSZ induced human HT-29 cells at 1 uM pretreated with compound followed by TSZ stimulation upto 6 hrs by immunoblotting analysis; format: cell-based
Target sequence in this assay (Q9Y572 whole entry, looked up, the tested form may be a part): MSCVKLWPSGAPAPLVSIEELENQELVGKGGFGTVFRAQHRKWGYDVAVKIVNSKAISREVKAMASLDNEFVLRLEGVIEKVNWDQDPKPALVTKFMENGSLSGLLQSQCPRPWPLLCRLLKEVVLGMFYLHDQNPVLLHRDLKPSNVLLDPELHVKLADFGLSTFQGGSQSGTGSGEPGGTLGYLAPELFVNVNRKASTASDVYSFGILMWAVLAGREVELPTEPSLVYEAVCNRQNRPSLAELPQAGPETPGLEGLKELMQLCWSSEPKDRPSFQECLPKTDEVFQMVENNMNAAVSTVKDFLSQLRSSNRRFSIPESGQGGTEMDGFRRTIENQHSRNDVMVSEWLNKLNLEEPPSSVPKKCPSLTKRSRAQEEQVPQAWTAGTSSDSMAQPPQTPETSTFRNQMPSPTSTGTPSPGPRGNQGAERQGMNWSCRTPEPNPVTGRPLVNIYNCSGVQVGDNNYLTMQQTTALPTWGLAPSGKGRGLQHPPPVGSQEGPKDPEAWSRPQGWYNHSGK

[11] = target: T3, Mixed lineage kinase domain-like protein (Homo sapiens) (UniProt Q8NB16); assay: Inhibition of MLKL phosphorylation in TSZ induced human HT-29 cells at 1 uM pretreated with compound followed by TSZ stimulation upto 6 hrs by immunoblotting analysis; format: cell-based
T3 sequence (whole entry): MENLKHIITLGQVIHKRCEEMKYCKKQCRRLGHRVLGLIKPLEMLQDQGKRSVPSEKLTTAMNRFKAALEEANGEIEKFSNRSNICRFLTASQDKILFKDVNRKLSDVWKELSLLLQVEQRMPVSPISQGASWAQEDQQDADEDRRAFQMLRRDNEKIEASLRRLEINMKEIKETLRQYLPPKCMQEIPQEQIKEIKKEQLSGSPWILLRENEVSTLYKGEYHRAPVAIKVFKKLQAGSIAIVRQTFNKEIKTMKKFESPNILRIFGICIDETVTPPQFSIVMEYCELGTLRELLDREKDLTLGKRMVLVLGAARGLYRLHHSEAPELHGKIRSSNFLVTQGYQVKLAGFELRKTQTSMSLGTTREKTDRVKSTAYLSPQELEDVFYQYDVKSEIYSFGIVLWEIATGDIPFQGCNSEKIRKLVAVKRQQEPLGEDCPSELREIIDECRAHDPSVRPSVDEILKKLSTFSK

Mus musculus [12] = assay: Antialzheimer activity against STZ induced C57BL/6 mouse model of cognitive dysfunction assessed as increase in central distance of mouse at 1 mg/kg, IG administered once daily for 7 days; format: functional, organism-based; conditions: time 7.0 day
Mus musculus [13] = assay: Antialzheimer activity against STZ induced C57BL/6 mouse model of cognitive dysfunction assessed as increase in percentage of quadrant time at 1 mg/kg, IG administered once daily for 7 days; format: functional, organism-based; conditions: time 7.0 day
Mus musculus [14] = assay: Anti-necroptosis activity against TNFalpha-induced C57BL/6 mouse model of systemic inflammatory response syndrome assessed as reduction in IL-6 level administered IG pretreated for 1 hr followed by TNFalpha stimulation for 2 hrs; format: functional, organism-based; conditions: dose 10-40 mg/kg, time 3.0 hrs, DDE = dose-dependent effect
Mus musculus [15] = organism: Mus musculus; assay: Antialzheimer activity against STZ induced C57BL/6 mouse assessed as decrease in p-RIPK3/RIPK3 ratio in frontal cortex; format: functional, organism-based
Mus musculus [16] = organism: Mus musculus; assay: Antialzheimer activity against STZ induced C57BL/6 mouse model of cognitive dysfunction assessed as decrease of TNF-alpha expression in frontal cortex; format: functional, organism-based
Mus musculus [17] = organism: Mus musculus; assay: Antialzheimer activity against STZ induced C57BL/6 mouse model of cognitive dysfunction assessed as restoration of hippocampal cell number by Nissl staining based analysis; format: functional, organism-based
[18] = target: T4, Receptor-interacting serine/threonine-protein kinase 1 (Homo sapiens, UniProt Q13546); assay: Binding affinity to recombinant human wild type partial length RIPK1 (M1 to K305 residues) expressed in bacterial expression system by KINOMEscan TM assay
T4 sequence (Q13546 whole entry): T1 sequence (whole entry)

[19] = Cytotoxicity against human HT-29 cells assessed as reduction in cell viability by celltiter-glo luminescent cell viability assay; format: toxicity, cell-based
Mus musculus [20] = assay: Antialzheimer activity against STZ induced C57BL/6 mouse model of cognitive dysfunction assessed as increase in quadrant time at 1 mg/kg, IG administered once daily for 7 days; format: functional, organism-based; conditions: time 7.0 day
[21] = Toxicity in C57BL/6 mouse assessed as effect on lungs by H and E staining based analysis; conditions: in vivo
[22] = Cytotoxicity against mouse primary neurons assessed as reduction in cell viability at 0.256 to […] by celltiter-glo luminescent cell viability assay; format: toxicity, cell-based; conditions: neuron, dose 0.256-[…]
Mus musculus [23] = organism: Mus musculus; assay: Antialzheimer activity against STZ induced C57BL/6 mouse model of cognitive dysfunction assessed as decrease of TNF-alpha expression in hippocampus; format: functional, organism-based
Mus musculus [24] = organism: Mus musculus; assay: Antialzheimer activity against STZ induced C57BL/6 mouse assessed as decrease in p-RIPK1/RIPK1 ratio in hippocampus; format: functional, organism-based
Mus musculus [25] = organism: Mus musculus; assay: Antialzheimer activity against STZ induced C57BL/6 mouse assessed as decrease in p-RIPK1/RIPK1 ratio in frontal cortex; format: functional, organism-based
Mus musculus [26] = assay: Antialzheimer activity against STZ induced C57BL/6 mouse model of cognitive dysfunction assessed as prolonged exploration time for new objects at 1 mg/kg, IG administered once daily for 7 days by novel object recognition test; format: functional, organism-based; conditions: time 7.0 day
[27] = Toxicity in C57BL/6 mouse assessed as effect on spleen by H and E staining based analysis; format: tissue-based; conditions: in vivo
Mus musculus [28] = organism: Mus musculus; assay: Antialzheimer activity against STZ induced C57BL/6 mouse model of cognitive dysfunction assessed as downregulation of IL-1 beta in frontal cortex; format: functional, organism-based
[29] = target: T2, Receptor-interacting serine/threonine-protein kinase 3; assay: Binding affinity to recombinant human wild type partial length RIPK3 (M1 to Q307 residues) expressed in bacterial expression system by KINOMEscan TM assay
Target sequence in this assay (Q9Y572 whole entry, the tested form may be a part): as the sequence (Q9Y572 whole entry, looked up, the tested form may be a part) above

HT-29 [30] = assay: Anti-necroptotic activity in TSZ induced human HT-29 cells assessed as increase in cell viability pretreated with compound followed by TSZ stimulation and measured after 16 hrs by celltiter-glo luminescent cell viability assay; format: functional, cell-based
Mus musculus [31] = assay: Antialzheimer activity against STZ induced C57BL/6 mouse model of cognitive dysfunction assessed as reduction in latency at 1 mg/kg, IG administered once daily for 7 days; format: functional, organism-based; conditions: time 7.0 day
[32] = target: T5, Receptor-interacting serine/threonine-protein kinase 1 (Mus musculus) (UniProt Q60855); assay: Inhibition of RIPK1 in mouse L929 cells assessed as reduction in TZ induced necroptosis pretreated with compound followed by TZ stimulation for 4 hrs by celltiter-glo luminescent cell viability assay; format: cell-based; conditions: dose 0.000781-0.025 µM, DDE = dose-dependent effect
T5 sequence (whole entry): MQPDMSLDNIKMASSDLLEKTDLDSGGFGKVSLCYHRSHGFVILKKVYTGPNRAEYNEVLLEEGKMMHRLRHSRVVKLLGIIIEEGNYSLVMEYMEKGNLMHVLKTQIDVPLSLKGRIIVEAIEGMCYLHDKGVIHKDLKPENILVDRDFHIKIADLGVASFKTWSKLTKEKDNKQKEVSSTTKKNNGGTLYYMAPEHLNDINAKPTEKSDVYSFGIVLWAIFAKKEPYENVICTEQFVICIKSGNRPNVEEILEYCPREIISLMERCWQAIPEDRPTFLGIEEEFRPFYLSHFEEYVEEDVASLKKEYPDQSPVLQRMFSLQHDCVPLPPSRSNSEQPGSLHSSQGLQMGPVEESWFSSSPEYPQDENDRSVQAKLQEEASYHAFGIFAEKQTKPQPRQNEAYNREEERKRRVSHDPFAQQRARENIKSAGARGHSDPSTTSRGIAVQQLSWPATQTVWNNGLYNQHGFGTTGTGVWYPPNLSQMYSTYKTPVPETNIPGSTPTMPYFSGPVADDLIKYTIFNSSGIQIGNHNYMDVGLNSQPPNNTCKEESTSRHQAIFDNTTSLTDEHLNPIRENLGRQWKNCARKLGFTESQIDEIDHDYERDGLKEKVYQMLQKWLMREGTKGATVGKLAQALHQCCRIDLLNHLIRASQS

HT-29 [33] = assay: Inhibition of TSZ induced RIPK1-RIPK3 necrosome formation in human HT-29 cells at 1 uM measured after 6 hrs by immunoblot analysis; format: functional, cell-based
HT-29 [34] = assay: Inhibition of RIPK1 expression in TSZ induced human HT-29 cells at 1 uM pretreated with compound followed by TSZ stimulation upto 6 hrs by immunoblotting analysis; format: functional, cell-based
Mus musculus [35] = assay: Anti-necroptosis activity against TNFalpha-induced C57BL/6 mouse model of systemic inflammatory response syndrome assessed as reduction in IL-1 beta level administered IG pretreated for 1 hr followed by TNFalpha stimulation for 2 hrs; format: functional, organism-based; conditions: dose 10-40 mg/kg, time 3.0 hrs, DDE = dose-dependent effect
Mus musculus [36] = assay: Antialzheimer activity against STZ induced C57BL/6 mouse model of cognitive dysfunction assessed as increase in preference index at 1 mg/kg, IG administered once daily for 7 days by novel object recognition test; format: functional, organism-based; conditions: time 7.0 day
Mus musculus [37] = organism: Mus musculus; assay: Antialzheimer activity against STZ induced C57BL/6 mouse assessed as decrease in p-RIPK3/RIPK3 ratio in hippocampus; format: functional, organism-based
Mus musculus [38] = organism: Mus musculus; assay: Antialzheimer activity against STZ induced C57BL/6 mouse model of cognitive dysfunction assessed as restoration of hippocampal morphology by Nissl staining based analysis; format: functional, organism-based
[39] = Toxicity in C57BL/6 mouse assessed as effect on heart by H and E staining based analysis; format: tissue-based; conditions: in vivo
Mus musculus [40] = organism: Mus musculus; assay: Antialzheimer activity against STZ induced C57BL/6 mouse model of cognitive dysfunction assessed as downregulation of IL-1 beta in hippocampus; format: functional, organism-based
[41] = target: T1, Receptor-interacting serine/threonine-protein kinase 1 (Homo sapiens); assay: Inhibition of RIPK1 in human HT-29 cells assessed as reduction in TSZ induced necroptosis pretreated with compound followed by TSZ stimulation for 8 hrs by celltiter-glo luminescent cell viability assay; format: cell-based; conditions: dose 0.4-50 nM, DDE = dose-dependent effect

O=C1CC(C(=O)Nc2nc3cc(Oc4ccc(F)c(NC(=O)Cc5cccc(OC(F)(F)F)c5)c4)c(F)cc3s2)C1
> 50000 nM: CC50 [19]
2 nM: EC50 (HT-29 [30])
> 5000 nM: Kd [29]
active: Activity (Mus musculus [1]) | Activity (Mus musculus [5]) | inhibition [6] | Activity (Mus musculus [8]) | inhibition [10] | inhibition [11] | Activity (Mus musculus [12]) | Activity (Mus musculus [13]) | Activity (Mus musculus [14]) Dde | Activity (Mus musculus [15]) | Activity (Mus musculus [16]) | Activity (Mus musculus [17]) | Activity (Mus musculus [20]) | Activity (Mus musculus [23]) | Activity (Mus musculus [24]) | Activity (Mus musculus [25]) | Activity (Mus musculus [26]) | Activity (Mus musculus [28]) | Activity (Mus musculus [31]) | Activity [32] Dde | inhibition (HT-29 [33]) | inhibition (HT-29 [34]) | Activity (Mus musculus [35]) Dde | Activity (Mus musculus [36]) | Activity (Mus musculus [37]) | Activity (Mus musculus [38]) | Activity (Mus musculus [40]) | inhibition [41] Dde
100%: inhibition [2] | Activity (Mus musculus [3]) | inhibition [4]
8.6 nM: Kd [18]
Non-Toxic: Activity [7] | Activity [9] | Activity [21] | Activity [22] | Activity [27] | Activity [39]

Source: ChEMBL document CHEMBL5096222, “Discovery of a Trifluoromethoxy Cyclopentanone Benzothiazole Receptor-Interacting Protein Kinase 1 Inhibitor as the Treatment for Alzheimer's Disease” (J Med Chem, 2022)
